Read-outs that look alike come from different tables or passages of the source.
Assays:
IL-6 = IL-6 secretion assay in human PBMCs (LPS, ELISA); type: cell-based; conditions: read-out: Inhibitory Activity EC50, IL6
Protocol: Fetal bovine serum (FBS) was obtained from ThermoFisher (Cat #16000044). • Other reagents: 96 well TC plates were obtained from ThermoFisher (Cat #07-2000-90). LPS was obtained from Sigma (Cat #L3024).
IL-6 was assessed using a standard ELISA protocol. Cryopreserved PBMCs were thawed in a water bath and transferred to 50 mL polypropylene tubes. The cells were washed two times with 25 mL of RPMI medium supplemented with 5% of heat-inactivated FBS and re-suspended at a density of 4.5^^6 cells/mL. The cells were plated into 96 well TC late (100 uL/well). Serially diluted compound was added to the cells in duplicate wells for each concentration. Control wells received DMSO only (0.3% final). The cells were pre-incubated with compound for 1 hr. After pre-incubation, the cells were stimulated by LPS (100 ng/mL) for 6 hr. Control samples with and without LPS in the absence of compound were assembled in each test plate. IL-6 was detected in media supernatants by using a sandwich anti-IL-6 ELISA kit (BD Biosciences) according to protocol provided by the manufacturer. ELISA readout (optical density at 450 nm) is commensurable with the amount of IL-6 produced by the cells. Assay window was determined in each experiment by comparing average OD450 values in stimulated and un-stimulated samples in the absence of compound. ELISA calibration was performed in each detection plate using serially diluted recombinant human IL-6, to ensure that OD450 values for all test samples were within linear range of detection.%-Inhibition by compound was calculated using following equation.
where OD450100% is optical density in control samples stimulated with LPS without compound, OD4500% is optical density in unstimulated control samples, and OD450compound is optical density in a sample stimulated with LPS in the presence of compound.
The calculated %-Inh values were plotted against compound concentration. To determine IC50 values, dose-response curves were fitted by a 4-parameter sigmoid inhibition model using XLFit® software (IDBS).

IL10 = IL10 secretion assay in human PBMCs (PHA-M, ELISA); type: cell-based; conditions: for EC50: read-out: Inhibitory Activity EC50, IL10
Protocol: Fetal bovine serum (FBS) was obtained from ThermoFisher (Cat #16000044). • Other reagents: 96 well TC plates were obtained from ThermoFisher (Cat #07-2000-90).
Cryopreserved PBMCs were thawed in a water bath and transferred to 50 mL polypropylene tubes. The cells were washed two times with 25 mL of RPMI medium supplemented with 5% of regular FBS and re-suspended at a density of 1.5^^6 cells/mL. The cells were plated into 96 well TC late (100 uL/well). Serially diluted compound was added to the cells in duplicate wells for each concentration. Control wells received DMSO only (0.3% final). The cells were pre-incubated with compound for 2 hr. After pre-incubation, the cells were stimulated by PHA-M (10 ug/mL) for 40 hr. Control samples with and without PHA-M in the absence of compound were assembled in each test plate. […] ELISA readout (optical density at 450 nm) is commensurable with the amount of IL10 produced by the cells. Assay window was determined in each experiment by comparing average OD450 values in stimulated and un-stimulated samples in the absence of compound. ELISA calibration was performed in each detection plate using serially diluted recombinant human IL10 standard, to ensure that OD450 values for all test samples were within linear range of detection.%-Inhibition by compound was calculated using following equation:
where OD450100% is optical density in control samples stimulated with PHA-M without compound, OD4500% is optical density in unstimulated control samples, and OD450compound is optical density in a sample stimulated with PHA-M in the presence of compound. The calculated %-Inh values were plotted against compound concentration. To determine IC50 values, dose-response curves were fitted by a 4-parameter sigmoid inhibition model using XLFit® software (IDBS).

recombinant human LOX-5 = target: T1, recombinant human LOX-5 (Homo sapiens, UniProt P09917); experiment: Biochemical LOX-5 assay
T1 construct: expressed in insect cells (Amino Acids 1-674) was obtained from Cayman; purchased Cayman 60402; host or cells: insect cells
T1 sequence (P09917 1-674): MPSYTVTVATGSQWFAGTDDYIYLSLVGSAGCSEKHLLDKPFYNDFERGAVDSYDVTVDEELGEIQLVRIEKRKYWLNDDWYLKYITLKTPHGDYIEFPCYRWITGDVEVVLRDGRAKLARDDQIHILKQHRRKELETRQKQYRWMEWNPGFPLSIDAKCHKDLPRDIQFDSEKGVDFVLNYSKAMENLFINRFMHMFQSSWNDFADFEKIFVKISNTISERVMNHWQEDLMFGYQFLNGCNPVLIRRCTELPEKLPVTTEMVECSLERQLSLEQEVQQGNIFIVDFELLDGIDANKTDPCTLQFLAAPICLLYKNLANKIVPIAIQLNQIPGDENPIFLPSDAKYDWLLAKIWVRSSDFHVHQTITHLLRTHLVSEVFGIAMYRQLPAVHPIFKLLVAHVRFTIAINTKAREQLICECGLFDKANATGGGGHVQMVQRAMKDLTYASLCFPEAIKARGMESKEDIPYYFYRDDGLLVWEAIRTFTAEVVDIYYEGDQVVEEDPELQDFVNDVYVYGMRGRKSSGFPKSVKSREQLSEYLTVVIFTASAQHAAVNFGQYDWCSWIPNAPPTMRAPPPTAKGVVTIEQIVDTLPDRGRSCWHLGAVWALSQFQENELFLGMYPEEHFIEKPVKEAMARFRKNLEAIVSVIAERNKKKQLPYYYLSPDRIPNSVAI
Protocol: The LOX-5 assay was performed in assay buffer comprising: 50 mM Tris (pH 7.5), 2 mM EDTA, 2 mM CaCl2), 3 uM AA, 10 uM ATP, 10 uM H2DCFDA, and recombinant enzyme (50 mU per 20 ul reaction, as defined by manufacturer). Serially diluted compounds were prepared in DMSO in Echo qualified 384 well plates. An assay buffer was then prepared without AA and ATP supplemented with 20 uM H2DCFDA. 10 uL of the supplemented buffer was dispensed into control (no enzyme) wells in the black 384 well assay plate. Next, a 2× enzyme solution was prepared, comprising 100 mU LOX-5 enzyme in the supplemented assay buffer. 10 uL of the 2× enzyme solution was then dispensed into test wells in the black 384 well assay plate. Serially diluted compounds were added to the assay plate by acoustic dispensing (Labcyte 550). Control wells received DMSO only.
Next, the 2× substrate was prepared to comprise 6 uM arachidonic acid and 20 uM ATP in the assay buffer. 10 uL of the 2× substrate was then added to all wells in the assay plate. The plate was incubated for 20 min.
[formula] • where RFU100% is fluorescence in control samples without compound, RFU0% is fluorescence in control samples without LOX-5, and RFUcompound fluorescence in a sample with compound.
The calculated %-Inh values were plotted against compound concentration. To determine EC50 values, dose-response curves were fitted by a 4-parameter sigmoid inhibition model using XLFit® software (IDBS).

[1] = PBMC, human PBMCs, LPS 100 ng/mL 6 hr
[2] = PBMC, human PBMCs, PHA-M 10 ug/mL 40 hr
[3] = recombinant enzyme, read-out: Inhibitory Activity EC50, 5-Lox

Molecule | EC50 (IL-6; [1]) [nM] | inhibitory activity on IL-10 (IL10) | EC50 (IL10; [2]) [nM] | EC50 (recombinant human LOX-5) [nM] | EC50 (IL-6; Homo sapiens, PBMC, 6 h) [nM] | EC50 (IL10; Homo sapiens, PBMC, 40 h) [nM] | EC50 (recombinant human LOX-5; [3]) [nM] | EC50 (IL-6; human PBMCs, LPS 100 ng/mL 6 hr) [nM] | EC50 (IL10; human PBMCs, PHA-M 10 ug/mL 40 hr) [nM] | stronger inhibition for 5-Lox compared to Cox-2 (recombinant human LOX-5)
CCCCCc1cc(OC(C)=O)c(C/C=C(\C)CCC=C(C)C)c(O)c1OC(C)=O [Formula XLIII] | > 10000 | particular strong inhibitory activity | 1200 | 340 |  |  |  |  |  | 
CCCCCc1cc(OC)c(C/C=C(\C)CCC=C(C)C)c(O)c1OC [Formula XLII] | > 10000 |  | > 10000 | 210 |  |  |  |  |  | 
CCCCCC1=C(NC)C(=O)C(C/C=C(\C)CCC=C(C)C)=C(O)C1=O [Formula XLI] | > 10000 | particular strong inhibitory activity | > 10000 | 480 |  |  |  |  |  | 
CCCCCc1cc(O)c(C/C=C(\C)CCC=C(C)C)c(O)c1O [Formula XXXIX] |  | particular strong inhibitory activity |  |  | > 10000 | 1690 | 200 |  |  | 
Cannabigerol Quinone [Formula VI] |  |  |  |  |  |  | 270 | 17900 | 1100 | over 200 fold

Source: patent US20250073184A1, “CANNABIGEROQUINONE COMPOUNDS, COMPOSITIONS INCLUDING SUCH COMPOUNDS, AND USES OF SUCH COMPOUNDS AND COMPOSITIONS” (Juva Life, Inc., priority 2021, published 2025)
